Here are results for 3 compounds from US11884636B2, “Gonadotropin releasing hormone receptor antagonist and use thereof” (SHIJIAZHUANG YILING PHARMACEUTICAL CO., LTD., priority 2020, dated 2024).

Entries after “also recorded” stand apart in the source; their conditions may differ. Like-named read-outs stand apart in the source and are kept apart here.

The nature of data set [1]: Rat pharmacokinetic assay. Particulars: SD rats; for F (absolute bioavailability) / bioavailability: oral gavage 50 mg/kg vs intravenous 25 mg/kg; for bioavailability / AUC(0-inf) / Cmax / Tmax / AUC(0-t) / clearance / Vd: female, rat, plasma; for bioavailability: SD, oral, 50 mg/kg, read-out: F (absolute bioavailability); for AUC(0-t): read-out: AUC0-24 h; for clearance: read-out: CLz (clearance rate) (converted); for Vd: read-out: Vz (apparent volume of distribution). Format: in vivo. Here is the method: 12 female SD rats, divided into four groups of three per group, were administrated G201 (dissolved in saline containing 5% N,N-dimethylacetamide and 5% cremophor ELL) and Elagolix Sodium (dissolved directly in saline) intravenously and by gavage at doses of 25 mg/kg and 50 mg/kg, respectively. Food was fasted overnight before administration and resumed 4 h after administration, with free access to water throughout the assay period. Blood was collected from the retro-orbital venous plexus before and 5, 15, 30 min, 1, 2, 4, 6, 8, 24 h after administration, and the volume of blood collected was approximately 0.2 mL. A whole blood sample centrifuged at 4000 rpm for 10 min within 1 h from collection. The upper layer of plasma was separated and stored in a refrigerator at minus 20° C. within 1 h until analysis. After the plasma sample were precipitated by methanolic protein at 1:8, G201 and Elagolix plasma concentrations were measured by an LC-MS/MS method, and main pharmacokinetic parameters were calculated by applying DAS3.2.7 software.

Data set [2] relates to serum luteinizing hormone (LH). Put plainly: Pharmacodynamic assay in male emasculated cynomolgus monkeys (serum LH). The data set is classed as in vivo. As to the method: Three male cynomolgus monkeys (purchased from Guangxi GuiDong Quadrumana Development & Laboratory Co., Ltd.), 3 to 5 years old (weight 3.8 to 4.0 kg), were fasted overnight and underwent bilateral orchiectomy under anesthesia. Serum luteinizing hormone (LH) was measured in the cynomolgus monkeys from 3 to 7 weeks after emasculation using radioimmunoassay.
After successful emasculation surgical modeling, G201 and Elagolix Sodium (dissolvent: 0.5% CMC-Na) were given in 2 administration cycles by single oral gavage at doses of 10 mg/kg and 30 mg/kg, respectively, both in a volume of 10 mL/kg. Each administration cycle was separated by an elution period of approximately 2 weeks. For each cycle of administration, blood was collected before and 0.25, 0.5, 1, 2, 3, 6, 8 and 24 h after administration, respectively, and serum was separated for gonadal hormone LH assay.

The conditions of data set [3]: mice, dose of 10 mg/kg; cited from earlier work.
The conditions of data set [4]: rats; cited from earlier work.
For data set [5] the following is noted: monkeys; cited from earlier work.
For data set [6] the following is noted: rats, oral radiolabeled Elagolix; cited from earlier work.
The conditions of data set [7]: human bodies; cited from earlier work.
Data set [8] addresses T1, recombinant human gonadotropin-releasing hormone receptor (GnRHR) (Homo sapiens, UniProt P30968).
T1 construct: expressed in transfected cells
T1 sequence (P30968 1-328): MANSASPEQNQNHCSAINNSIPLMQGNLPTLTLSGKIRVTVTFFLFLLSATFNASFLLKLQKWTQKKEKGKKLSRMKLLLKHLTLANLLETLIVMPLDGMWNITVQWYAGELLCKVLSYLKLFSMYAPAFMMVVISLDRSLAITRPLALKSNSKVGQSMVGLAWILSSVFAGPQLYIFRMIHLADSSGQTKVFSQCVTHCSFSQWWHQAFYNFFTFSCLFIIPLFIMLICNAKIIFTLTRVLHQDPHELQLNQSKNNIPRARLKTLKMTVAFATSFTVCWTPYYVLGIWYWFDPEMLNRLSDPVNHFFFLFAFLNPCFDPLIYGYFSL
In words: FLIPR calcium flux assay in CHO-K1/GNRHR/Gα15 cells. Format: cell-based. The following applies: Buserelin EC80 agonist, read-out: EC50, inhibition of intracellular calcium release. As to the method: Intracellular calcium changes of cell line CHO-K1/GNRHR/Gα15 that is stable of a recombinant human gonadotropin-releasing hormone receptor (GnRHR) were measured using an FLIPR calcium flux assay kit (Calcium 4 assay kit). GnRHR is a G protein-coupled receptor (GPCRs), and a GPCRs signal enabled intracellular calcium release through a Gq pathway. Therefore, functional changes of GnRHR, which carried out signal transduction through the Gq pathway, can be detected by detecting intracellular calcium release with a calcium-sensitive fluorescent probe. The assay steps were as follows: • 1. Cells were seeded in 384-well plates (Corning, Cat #:3764) at a density of 10,000 cells/well with an F12+10% FBS medium (20 μl/well) and cultured overnight (18 h). • 2. A dye working solution was prepared from a probenecid stock solution (500 mM) and a Calcium 4 stock solution mixed at 1:100. A sample to be tested G201 and Elagolix (2 mM in DMSO) was diluted with an assay buffer, specifically, 5 μl of 2 mM stock solution was taken and diluted to 200 μl (50 μM) to obtain a 5× sample working solution of a first concentration. 20 μl of the 5× sample working solution was taken and diluted to 200 μl, and after even mixing, a sample working solution of a second concentration was obtained. A total of eight gradient dilutions of sample working solutions were prepared respectively. […]

The nature of data set [9]: Mouse pharmacokinetic assay. The data set is classed as in vivo. The following applies: ICR mice. As to the method:
10 female ICR mice, divided into two groups of five per group, were administrated G201 intravenously and by oral gavage, respectively, at a dose of 10 mg/kg. Blood was collected from the retro-orbital venous plexus 0.083, 0.25, 0.5, 1, 2, 4, 6, 8 h after administration, and the volume of blood collected was approximately 0.1 mL. A blood sample was centrifuged at 4000 rpm for 10 min within 1 h. The upper layer of plasma was separated and stored in a refrigerator at minus 80° C. within 1 h to be measured. The subject animals were fasted for at least 12 h before blood collection and were not water fasted. Food and water were fasted during blood collection and free 2 h after administration. The plasma concentration of G201 in the ICR mice was measured by an LC-MS/MS method, and main pharmacokinetic parameters were calculated by applying DAS 3.2.7 pharmacokinetic software and include AUC0-4, AUC0-∞, Cmax, t1/2, etc.

Where [10] appears, read: female, mouse, plasma, intravenous injection 10 mg/kg.
[11] abbreviates: female, mouse, plasma, oral administration 10 mg/kg.

For the compound `COc1cccc(-c2c(C)n(Cc3c(F)cccc3C(F)(F)F)c(=O)n(C[C@H](NCCCC(=O)[O-])c3ccccc3)c2=O)c1F.[Na+]` [Elagolix Sodium, Sodium R-(+)-4-{2-[5-(2-Fluoro-3-methoxyphenyl)-3-(2-fluoro-6-[trifluoromethyl]-benzyl)-4-methyl-2,6-dioxo-3,6-dihydro-2H-pyrimidin-1-yl]-1-phenylethylamino}butyrate, reference compound], in [1] (intravenous injection 25 mg/kg), the t1/2z was 130 min, the AUC(0-inf) worked out at 10200 ng·h/mL, the peak level (Cmax) was 15600 ng/mL and the time of peak concentration (Tmax) came out at 4.8 min. Besides, in data set [1] (intravenous injection 25 mg/kg), the AUC(0-t) was found to be 10200 ng·h/mL, the clearance is 41.3 mL/min/kg and the Vd is 8.46 L/kg. In addition, in data set [1] (oral gavage 50 mg/kg), the t1/2z was 272 min, the AUC(0-inf) turned out to be 4870 ng·h/mL, the Cmax is 4660 ng/mL and the Tmax stood at 25.2 min. The AUC(0-t) in data set [1] (oral gavage 50 mg/kg) turned out to be 4830 ng·h/mL. Besides, in data set [1], the “F (absolute bioavailability)” value is 23.7% and the bioavailability came to 23.6%. In data set [2] (single oral gavage 30 mg/kg), the “general condition, weight and abnormalities during the assay period” value is listed as “no subject-related abnormalities were observed”; the “serum LH change after administration” value is on record as “decreased significantly”; the “time at which serum LH returned to the pre-administration level” value came to 24 h; the “time of serum LH minimum after administration” value was 3 h.

As to `COc1cccc(-c2c(C)n(Cc3c(F)cccc3C(F)(F)F)c(=O)n(C[C@H](NCCCC(=O)[O-])c3ccccc3)c2=O)c1F.[Na+]` [Elagolix, Sodium R-(+)-4-{2-[5-(2-Fluoro-3-methoxyphenyl)-3-(2-fluoro-6-[trifluoromethyl]-benzyl)-4-methyl-2,6-dioxo-3,6-dihydro-2H-pyrimidin-1-yl]-1-phenylethylamino}butyrate], the absolute bioavailability in [3] is reported as 10%. Moreover, the absolute oral bioavailability in data set [4] is given as 5.8%; in [5], 11%. Also, in [6], the “total radioactivity excreted through the bile” value is listed as around 50%. For the same compound, in [7], the “apparent volume of distribution” value was 1674 L.

For `COc1cccc(-c2c(C)n(Cc3c(F)cccc3C(F)(F)F)c(=O)n(C[C@H](NCCCC(=O)O)c3ccccc3F)c2=O)c1F` [Compound G201], the IC50 in data set [8] came out at 0.0376 µM. Also, in data set [1] (intravenous injection 25 mg/kg), the t1/2z is 47.4 min, the AUC(0-inf) turned out to be 15700 ng·h/mL, the Cmax was determined as 27200 ng/mL and the Tmax was 4.8 min. In [1] (intravenous injection 25 mg/kg), the AUC(0-t) amounted to 15700 ng·h/mL, the clearance was 27 mL/min/kg and the Vd was determined as 1.82 L/kg. Moreover, in data set [1] (oral gavage 50 mg/kg), the “oral AUC0-∞ relative to that of Elagolix Sodium” value is on record as “three times”, the t1/2z was found to be 282 min, the AUC(0-inf) is 16400 ng·h/mL and the concentration peaked (Cmax) at 17000 ng/mL. In [1] (oral gavage 50 mg/kg), the Tmax came to 25.2 min and the AUC(0-t) worked out at 16300 ng·h/mL. Also, in data set [1], the “F (absolute bioavailability)” value stood at 51.9% and the bioavailability amounted to 51.9%. In data set [9] (intravenous injection 10 mg/kg), this compound displayed a CLz of 53 mL/min/kg and a t1/2z of 15.6 min. Besides, in data set [9] (oral administration 10 mg/kg), the t1/2z stood at 25.8 min. Besides, in data set [9] (setting [10]), the AUC(0-inf) was found to be 3250 ng·h/mL and the AUC(0-t) turned out to be 3240 ng·h/mL. Also, the Vd in data set [9] (female, mouse, plasma, intravenous injection 10 mg/kg, read-out: Vz) amounted to 1.17 L/kg. In addition, in [9] (setting [11]), the AUC(0-inf) amounted to 1270 ng·h/mL, the AUC(0-t) is 1010 ng·h/mL, the Cmax was found to be 2000 ng/mL and the Tmax turned out to be 16.2 min. Moreover, in data set [9] (female, mouse, plasma, oral administration 10 mg/kg vs intravenous 10 mg/kg, read-out: F (absolute bioavailability)), the bioavailability turned out to be 38.9%. In addition, in data set [2] (single oral gavage 10 mg/kg), the “general condition, weight and abnormalities during the assay period” value is recorded as “no subject-related abnormalities were observed”; the “serum LH change after administration” value is “decreased significantly”; the “time of serum LH minimum after administration” value came out at 3 h. Moreover, in data set [2] (single oral gavage 10 mg/kg G201), the “serum LH inhibitory effect compared with 30 mg/kg Elagolix Sodium” value is given as “slightly higher magnitude of change; also recorded: comparable or superior”.
